Data from BindingDB's records for doi:10.7270/Q2DB809V (Burnham Center For Chemical Genomics, 2010).

Biological target: Intestinal-type alkaline phosphatase (Mus musculus, UniProt P24822)
Assay: PubChem AID 488785

Chain of Intestinal-type alkaline phosphatase (P24822 whole entry, looked up): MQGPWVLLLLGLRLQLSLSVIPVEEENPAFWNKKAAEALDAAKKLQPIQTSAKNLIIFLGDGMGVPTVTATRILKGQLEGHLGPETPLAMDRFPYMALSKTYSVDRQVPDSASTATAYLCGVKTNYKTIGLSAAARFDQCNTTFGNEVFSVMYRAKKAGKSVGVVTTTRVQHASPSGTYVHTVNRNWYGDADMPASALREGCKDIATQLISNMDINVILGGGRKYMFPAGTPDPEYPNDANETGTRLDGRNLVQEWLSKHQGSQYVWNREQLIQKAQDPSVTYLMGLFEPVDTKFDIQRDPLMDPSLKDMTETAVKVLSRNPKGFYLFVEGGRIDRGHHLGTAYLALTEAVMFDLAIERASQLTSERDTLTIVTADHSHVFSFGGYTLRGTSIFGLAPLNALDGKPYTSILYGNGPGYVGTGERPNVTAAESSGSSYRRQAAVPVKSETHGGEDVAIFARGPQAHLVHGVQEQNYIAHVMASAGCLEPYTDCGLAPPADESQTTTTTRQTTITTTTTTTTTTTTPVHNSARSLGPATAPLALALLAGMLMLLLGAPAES

| SMILES | IC50 |
| --- | --- |
| Cc1ccc(Cl)c2c1NC(=O)/C2=C1/NC(=S)NC1=O | 0.206 µM |
| Nc1nnc(CC(=O)N/N=C/C2C=C([N+](=O)[O-])C=C(Br)C2=O)s1 (stereo unspecified) [2-(5-azanyl-1,3,4-thiadiazol-2-yl)-N'-[(E)-(5-bromanyl-3-nitro-6-oxidanylidene-cyclohexa-2,4-dien-1-ylidene)methyl]ethanehydrazide] | 2.79 µM |
| NS(=O)(=O)c1cc(C(=O)NNC2=c3ccccc3=NC2=O)ccc1Cl [2-chloro-5-[[(2-oxoindol-3-yl)amino]carbamoyl]benzenesulfonamide] | 42.4 µM |
| COc1cc(C=Nn2c(O)csc2=S)ccc1O [3-[[(E)-(3-methoxy-4-oxidanylidene-cyclohexa-2,5-dien-1-ylidene)methyl]amino]-2-sulfanylidene-1,3-thiazolidin-4-one] | 2.2 µM |
| Oc1ccc(C=Nn2c(O)csc2=S)c(O)c1O [3-[[(E)-[2,3-bis(oxidanyl)-4-oxidanylidene-cyclohexa-2,5-dien-1-ylidene]methyl]amino]-2-sulfanylidene-1,3-thiazolidin-4-one] | 4.15 µM |
| CC1NON=C1C(=O)NN=CC1=CC(=O)C(=O)C=C1 (stereo unspecified) [4-Methyl-furazan-3-carboxylic acid (3,4-dihydroxy-benzylidene)-hydrazide] | 9.92 µM |
| Oc1ccc(CN=Nc2cc(N3CCCC3)nc(N3CCCC3)n2)cc1O [(4Z)-4-[[2-(2,6-dipyrrolidin-1-ylpyrimidin-4-yl)hydrazinyl]methylidene]-2-hydroxycyclohexa-2,5-dien-1-one] | 1.51 µM |
| Cc1ccc(/C=C2\SC(=S)N(/N=C/C3C=C([N+](=O)[O-])C=CC3=O)C2=O)o1 (stereo unspecified) [(5Z)-5-[(5-methylfuran-2-yl)methylidene]-3-[[(E)-(3-nitro-6-oxocyclohexa-2,4-dien-1-ylidene)methyl]amino]-2-sulfanylidene-1,3-thiazolidin-4-one] | 61.9 µM |
| C#CCOCCOCCOCCNc1nc(N2CCN(C(=O)CCCCCCCCCCNC(=O)[C@H]([C@@H](C)CC)n3cc(CCCCN=C(N)N)nn3)CC2)nc(N2CCN(C(=O)CCCCCCCCCCNC(=O)[C@@H]([C@H](C)O)n3cc(C)nn3)CC2)n1 [GT-RI] | 0.366 µM |
| C#CCOCCOCCOCCNc1nc(N2CCN(C(=O)CCCCCCCCCCNC(=O)Cn3cc(CCCCCN)nn3)CC2)nc(N2CCN(C(=O)CCCCCCCCCCNC(=O)Cn3cc(C[C@@H](C)O)nn3)CC2)n1 [KG-TG] | 6.31 µM |
| C#CCOCCOCCOCCNc1nc(N2CCN(C(=O)CCCCCCCCCCNC(=O)[C@@H](CCC(=O)O)n3cc(CCCCCN)nn3)CC2)nc(N2CCN(C(=O)CCCCCCCCCCNC(=O)[C@H]([C@@H](C)CC)n3cc(CCCCCN)nn3)CC2)n1 [KI-KE] | 17.1 µM |
| O=C1C=CC(C=NNC(=S)Nc2ccccc2[N+](=O)[O-])C=C1O (stereo unspecified) [MLS000417596] | 0.216 µM |
| C#CCOCCOCCOCCNc1nc(N2CCN(C(=O)CCCCCCCCCCNC(=O)[C@@H](CCSC)n3cc(CCO)nn3)CC2)nc(N2CCN(C(=O)CCCCCCCCCCNC(=O)[C@H]([C@@H](C)CC)n3cc(CCCCCN)nn3)CC2)n1 [MLS002153719] | 5.89 µM |
| O=C(Nn1c(O)csc1=S)C(=O)Nn1c(O)csc1=S [SMR000349781] | 7.75 µM |
| O=C1C=CC(/C=C/c2nc(O)c([N+](=O)[O-])c(=O)[nH]2)C=C1O (stereo unspecified) [SMR000524347] | 1.04 µM |
| COc1cc(C=CC(=O)CC(=O)C=Cc2ccc(O)cc2)ccc1O [demethoxycurcumin] | 8.38 µM |
